Laboratory results: PubChem BioAssay AID330 (DTP/NCI, 2004)
Several values for one entry are separate records, joined by “and”; a condition that tells them apart may be missing. Equal values may be shown once. Toxic doses and inconclusive results are not listed. Rule for the calls: active = survival T/C of 150% or more; inactive = T/C below 125% in these data. Peptide text beside a SMILES is read from it.

System: P388 leukemia ip, CD2F1 mice, survival T/C
Assay: NCI In Vivo Anticancer Drug Screen. Data for tumor model P388 Leukemia (intraperitoneal) in CD2F1 (CDF1) mice
Details: endpoint: median survival time, higher = longer survival
Method in brief: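 Mice carrying the transplanted tumor received test compound or vehicle. Survival was recorded in each group, and the value is the treated-group measurement divided by that of the vehicle-treated control group.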

[1] = dose: 100.0 mg/kg/injection, schedule: Q04DX002 (ip), vehicle: saline with Tween-80
[2] = dose: 200.0 mg/kg/injection, schedule: Q04DX002 (ip), vehicle: saline with Tween-80
[3] = dose: 400.0 mg/kg/injection, schedule: Q04DX002 (ip), vehicle: saline with Tween-80
[4] = dose: 50.0 mg/kg/injection, schedule: Q01DX009 (ip), vehicle: Klucel (hydroxypropylcellulose) (HPC)
[5] = dose: 100.0 mg/kg/injection, schedule: Q01DX001 (ip), vehicle: Klucel (hydroxypropylcellulose) (HPC)
[6] = dose: 200.0 mg/kg/injection, schedule: Q01DX001 (ip), vehicle: Klucel (hydroxypropylcellulose) (HPC)
[7] = dose: 50.0 mg/kg/injection, schedule: Q01DX009 (ip), vehicle: saline with Tween-80
[8] = dose: 100.0 mg/kg/injection, schedule: Q01DX009 (ip), vehicle: saline with Tween-80
[9] = dose: 200.0 mg/kg/injection, schedule: Q01DX009 (ip), vehicle: saline with Tween-80
[10] = dose: 50.0 mg/kg/injection, schedule: Q01DX009 (ip), vehicle: saline
[11] = dose: 100.0 mg/kg/injection, schedule: Q01DX009 (ip), vehicle: saline
[12] = dose: 200.0 mg/kg/injection, schedule: Q01DX009 (ip), vehicle: saline
[13] = dose: 25.0 mg/kg/injection, schedule: Q01DX009 (ip), vehicle: saline
[14] = dose: 50.0 mg/kg/injection, schedule: Q01DX005 (ip), vehicle: Klucel (hydroxypropylcellulose) (HPC)
[15] = dose: 100.0 mg/kg/injection, schedule: Q01DX005 (ip), vehicle: Klucel (hydroxypropylcellulose) (HPC)
[16] = dose: 200.0 mg/kg/injection, schedule: Q01DX005 (ip), vehicle: Klucel (hydroxypropylcellulose) (HPC)
[17] = dose: 50.0 mg/kg/injection, schedule: Q01DX005 (ip), vehicle: saline with Tween-80
[18] = dose: 100.0 mg/kg/injection, schedule: Q01DX005 (ip), vehicle: saline with Tween-80

Measured: T/C

CSc1c(C#N)c(N)nn1-c1ccccn1
inactive: [1] 100 % of control | [2] 98 % of control | [3] 99 % of control

CC1(c2cccc[n+]2Cc2ccc(Cl)c(Cl)c2)OCCO1
inactive: dose: 12.5 mg/kg/injection, schedule: Q01DX005 (ip), vehicle: saline 100 % of control | dose: 25.0 mg/kg/injection, schedule: Q01DX005 (ip), vehicle: saline 99 % of control

O=c1oc2nc(-c3ccccc3)[nH]c(=O)c2c(O)c1Cc1ccccc1
inactive: dose: 15.0 mg/kg/injection, schedule: Q01DX005 (ip), vehicle: Klucel (hydroxypropylcellulose) (HPC) 97 % of control | dose: 30.0 mg/kg/injection, schedule: Q01DX005 (ip), vehicle: Klucel (hydroxypropylcellulose) (HPC) 98 % of control | dose: 60.0 mg/kg/injection, schedule: Q01DX005 (ip), vehicle: Klucel (hydroxypropylcellulose) (HPC) 95 % of control and 96 % of control

CCO/C=N/c1[nH]c(C)c(C)c1C#N
inactive: [4] 93 % of control | dose: 100.0 mg/kg/injection, schedule: Q01DX009 (ip), vehicle: Klucel (hydroxypropylcellulose) (HPC) 100 % of control | dose: 200.0 mg/kg/injection, schedule: Q01DX009 (ip), vehicle: Klucel (hydroxypropylcellulose) (HPC) 105 % of control

C/C(N)=N/OC(c1ccccc1)(c1ccccc1)c1ccccc1
inactive: dose: 50.0 mg/kg/injection, schedule: Q01DX005 (ip), vehicle: Klucel + Tween-80 94 % of control | dose: 100.0 mg/kg/injection, schedule: Q01DX005 (ip), vehicle: Klucel + Tween-80 90 % of control | dose: 200.0 mg/kg/injection, schedule: Q01DX005 (ip), vehicle: Klucel + Tween-80 93 % of control

CCC1(C(=O)Sc2ccccc2)OC1c1ccccc1 (stereo not drawn)
inactive: [5] 89 % of control | [6] 90 % of control | dose: 400.0 mg/kg/injection, schedule: Q01DX001 (ip), vehicle: Klucel (hydroxypropylcellulose) (HPC) 90 % of control

CCCCCCC(O)CCC(O)CCCCCCCC(=O)O (stereo not drawn)
inactive: [7] 103 % of control | [8] 92 % of control | [9] 100 % of control

O=C(O)c1cc2c(cc1S(=O)(=O)O)C1C(C3C2C2(Cl)C(Cl)=C(Cl)C3(Cl)C2(Cl)Cl)C2(Cl)C(Cl)=C(Cl)C1(Cl)C2(Cl)Cl (stereo not drawn)
inactive: [10] 105 % of control | [11] 100 % of control | [12] 100 % of control

CCOC(=O)c1cnc(Sc2c([N+](=O)[O-])ncn2C)nc1N
inactive: dose: 12.5 mg/kg/injection, schedule: Q01DX009 (ip), vehicle: Klucel (hydroxypropylcellulose) (HPC) 89 % of control | dose: 25.0 mg/kg/injection, schedule: Q01DX009 (ip), vehicle: Klucel (hydroxypropylcellulose) (HPC) 92 % of control | [4] 86 % of control and 91 % of control

COc1cc(OC)c(/C=N/NC(=S)NC23CC4CC(CC(C4)C2)C3)c(OC)c1
inactive: dose: 15.0 mg/kg/injection, schedule: Q01DX005 (ip), vehicle: saline with Tween-80 94 % of control | dose: 30.0 mg/kg/injection, schedule: Q01DX005 (ip), vehicle: saline with Tween-80 97 % of control | dose: 240.0 mg/kg/injection, schedule: Q01DX005 (ip), vehicle: saline with Tween-80 89 % of control

Nc1nc2ccccc2n1C(=O)C(F)(F)F
inactive: [5] 98 % of control | [6] 116 % of control

NC(N)=NCCCC(N)C(=O)NC(CCC(=O)O)C(=O)O (stereo not drawn) (H-Arg-Glu-OH; configuration not given here)
inactive: [13] 91 % of control | [14] 100 % of control | [10] 97 % of control | [15] 100 % of control | [11] 94 % of control | [16] 100 % of control | [12] 103 % of control | dose: 400.0 mg/kg/injection, schedule: Q01DX009 (ip), vehicle: saline 88 % of control

CCCCCCCCCCCCCCCCCC(=O)O.[Co]
inactive: [7] 87 % of control and 95 % of control and 97 % of control | [8] 100 % of control and 103 % of control and 97 % of control | [9] 92 % of control

OCC1OC2OC3C(CO)OC(OC4C(CO)OC(OC5C(CO)OC(OC6C(CO)OC(OC7C(CO)OC(OC8C(CO)OC(OC1C(O)C2O)C(O)C8O)C(O)C7O)C(O)C6O)C(O)C5O)C(O)C4O)C(O)C3O (stereo not drawn)
inactive: [10] 100 % of control | [11] 94 % of control

C[C@@H]1C[C@H]2C(=CC1=O)CC[C@@H]1[C@@H]2CC[C@]2(C)[C@@H](O)CC[C@@H]12
inactive: dose: 100.0 mg/kg/injection, schedule: Q04DX003 (ip), vehicle: saline with Tween-80 100 % of control | dose: 200.0 mg/kg/injection, schedule: Q04DX003 (ip), vehicle: saline with Tween-80 109 % of control | dose: 400.0 mg/kg/injection, schedule: Q04DX003 (ip), vehicle: saline with Tween-80 100 % of control

[Cl][Ge]([c]1ccccc1)[c]1ccccc1.c1cc[c]([GeH][c]2ccccc2)cc1
inactive: [14] 93 % of control | [15] 100 % of control | [16] 103 % of control

[Cl][Sn]1([Cl])[CH2]CCCCCC[CH2][Sn]([Cl])([Cl])[CH2]CCCCCC[CH2]1
inactive: [17] 92 % of control | [18] 92 % of control

O=C1c2ccccc2C(=O)C23OC12C1C=CC3CC1 (stereo not drawn)
inactive: dose: 50.0 mg/kg/injection, schedule: Q01DX001 (ip), vehicle: Klucel (hydroxypropylcellulose) (HPC) 94 % of control | [5] 91 % of control | [6] 93 % of control

N#CC1(C#N)C(CCl)C1(C#N)C#N
inactive: dose: 12.5 mg/kg/injection, schedule: Q01DX009 (ip), vehicle: saline with Tween-80 98 % of control | dose: 25.0 mg/kg/injection, schedule: Q01DX009 (ip), vehicle: saline with Tween-80 94 % of control | [7] 98 % of control | [10] 102 % of control

O=C(O)CCC(Nc1ncnc2nc[nH]c12)C(=O)O (stereo not drawn)
inactive: [17] 92 % of control | [18] 97 % of control | dose: 200.0 mg/kg/injection, schedule: Q01DX005 (ip), vehicle: saline with Tween-80 89 % of control

CC1CC(Cc2ccccc2)C(=O)CC(C)(C)CC(=O)O1 (stereo not drawn)
inactive: dose: 50.0 mg/kg/injection, schedule: Q04DX003 (ip), vehicle: saline 100 % of control and 103 % of control and 106 % of control

NCCn1[nH]c(=O)c2ccncc2c1=O
inactive: [1] 94 % of control | [2] 92 % of control | [3] 92 % of control

NCCc1ccc(OCc2ccccc2)c(OCc2ccccc2)c1
inactive: dose: 6.25 mg/kg/injection, schedule: Q01DX009 (ip), vehicle: saline 101 % of control and 107 % of control | dose: 12.5 mg/kg/injection, schedule: Q01DX009 (ip), vehicle: saline 108 % of control and 118 % of control | [13] 101 % of control and 109 % of control

CCOC1OCN(CCc2ccccc2)CC1(C)C (stereo not drawn)
inactive: [7] 108 % of control | [8] 119 % of control | [9] 118 % of control

CCCCN(CCCC)C(=N)c1ccccc1Cl
inactive: dose: 6.25 mg/kg/injection, schedule: Q01DX005 (ip), vehicle: Klucel (hydroxypropylcellulose) (HPC) 103 % of control | dose: 12.5 mg/kg/injection, schedule: Q01DX005 (ip), vehicle: Klucel (hydroxypropylcellulose) (HPC) 99 % of control

COc1cc2ccnc(/C=N\O)c2cc1OC
inactive: dose: 12.5 mg/kg/injection, schedule: Q01DX009 (ip), vehicle: distilled water + Tween-80 102 % of control | dose: 25.0 mg/kg/injection, schedule: Q01DX009 (ip), vehicle: distilled water + Tween-80 116 % of control | dose: 50.0 mg/kg/injection, schedule: Q01DX009 (ip), vehicle: distilled water + Tween-80 109 % of control | dose: 100.0 mg/kg/injection, schedule: Q01DX009 (ip), vehicle: distilled water + Tween-80 102 % of control | dose: 200.0 mg/kg/injection, schedule: Q01DX009 (ip), vehicle: distilled water + Tween-80 91 % of control | dose: 400.0 mg/kg/injection, schedule: Q01DX009 (ip), vehicle: distilled water + Tween-80 93 % of control

CCC1=C(O)C(=O)C(C)(C)C1=O
inactive: dose: 50.0 mg/kg/injection, schedule: Q01DX005 (ip), vehicle: saline 99 % of control and 101 % of control | dose: 100.0 mg/kg/injection, schedule: Q01DX005 (ip), vehicle: saline 100 % of control and 96 % of control | dose: 200.0 mg/kg/injection, schedule: Q01DX005 (ip), vehicle: saline 90 % of control and 98 % of control
